# Laboratory results as given in patent US20220202810A1 (Lake O'Hara LLC, priority 2020, published 2022).
# Like-named read-outs stand apart in the source and are kept apart here.
# Experiments:
# [1] = cited from earlier work
# [2] = PBPK modeling of schizophrenia patients, FDA label and modified dosing regimens; parameters: species or system human; conditions: for Days Reduced to Reach Pharmacokinetic Endpoints: EC50 / Days Reduced to Reach Pharmacokinetic Endpoints: EC80 / Days Reduced to Reach Pharmacokinetic Endpoints: Steady State: modified regimen of Table F vs FDA label, Obese
# Description: PBPK Modeling of Patients Dosed with Brexpiprazole According to the FDA Label
# Although the PBPK modeling was based on the dosing regimen for schizophrenia according to the FDA label (REXULTI®, 3/2020), pharmacokinetic parameters are dose-dependent and expected to be similar in MDD.
# In order to simulate brexpiprazole under various conditions, a whole-body PBPK model was constructed to capture the drug's kinetics in major tissues. Model tissue compartments included adipose, bone, brain, large intestine, small intestine, heart, kidney, liver, lung, muscle, spleen, stomach, and skin tissues, as well as venous and arterial blood compartments. In order to accurately capture first-pass clearance effects on the drug, the model also included correct representation of the gastrointestinal tract organs and the liver. […] Drug distribution into each tissue compartment was modeled assuming perfusion-limited kinetics, with partitioning into tissue described by a partition coefficient (Kp) estimated using methods described by Poulin and Theil (2002). Brexpiprazole-specific biochemical parameters such as the log of octanol:water partition coefficient (logP), negative log acid dissociation constant (pKa), fraction unbound in the plasma (fup), blood:plasma concentration ratio (BP), and clearance were obtained from literature; additional physiochemical properties used to calculate Kps were obtained via DrugBank. […] Simulations were carried out in a virtual population of 500 normal-weight and 500 obese individuals with age- and sex-specific physiological parameters (i.e. tissue flows and volumes) sampled from the National Health and Nutrition Examination Survey (NHANES) dataset.
# PBPK Modeling of Schizophrenia Patients Treated with Higher Doses According to Modified Methods
# A modified dosing regimen was developed so that obese and CYP2D6 PM patients reach therapeutic levels earlier (Table F). […] On day 8, patients returned to administering the recommended dose once daily. […] On day 15, patients returned to administering the recommended dose once daily.
# [3] = cited from earlier work; remark: listed apart in the source
# [4] = brexpiprazole patients; cited from earlier work
smiles,measurement,setting,value
"O=c1ccc2ccc(OCCCCN3CCN(c4cccc5sccc45)CC3)cc2[nH]1 [Brexpiprazole, 7-{4-[4-(1-Benzothiophen-4-yl)piperazin-1-yl]butoxy}quinolin-2(1H)-one]",AUC Observed,"[1]; NDA Study1, IV, 0.25 mg",172 ng·h/mL
same,Cmax Observed,"[1]; NDA Study1, IV, 0.25 mg",4.73 ng/mL
same,Tmax Observed,"[1]; NDA Study1, IV, 0.25 mg",1 h
same,AUC Observed,"[1]; NDA Study1, PO, 0.2 mg",123 ng·h/mL
same,Cmax Observed,"[1]; NDA Study1, PO, 0.2 mg",2.62 ng/mL
same,Tmax Observed,"[1]; NDA Study1, PO, 0.2 mg",2 h
same,AUC Observed,"[1]; NDA Study1, PO, 0.5 mg",287 ng·h/mL
same,Cmax Observed,"[1]; NDA Study1, PO, 0.5 mg",6.64 ng/mL
same,Tmax Observed,"[1]; NDA Study1, PO, 0.5 mg",4 h
same,AUC Observed,"[1]; NDA Study1, PO, 1 mg",636 ng·h/mL
same,Cmax Observed,"[1]; NDA Study1, PO, 1 mg",11.70 ng/mL
same,Tmax Observed,"[1]; NDA Study1, PO, 1 mg",6 h
same,AUC Observed,"[1]; NDA Study1, PO, 2 mg",1690 ng·h/mL
same,Cmax Observed,"[1]; NDA Study1, PO, 2 mg",22.10 ng/mL
same,Tmax Observed,"[1]; NDA Study1, PO, 2 mg",6 h
same,AUC Observed,"[1]; NDA Study2, PO, 2 mg",2160 ng·h/mL
same,Cmax Observed,"[1]; NDA Study2, PO, 2 mg",24.60 ng/mL
same,Tmax Observed,"[1]; NDA Study2, PO, 2 mg",4 h
same,AUC Observed,"[1]; NDA Study2, PO, 4 mg",2760 ng·h/mL
same,Cmax Observed,"[1]; NDA Study2, PO, 4 mg",47.20 ng/mL
same,Tmax Observed,"[1]; NDA Study2, PO, 4 mg",6 h
same,AUC Observed,"[1]; NDA Study2, PO, 6 mg",5230 ng·h/mL
same,Cmax Observed,"[1]; NDA Study2, PO, 6 mg",71.10 ng/mL
same,Tmax Observed,"[1]; NDA Study2, PO, 6 mg",6 h
same,AUC Observed,"[1]; NDA Study2, PO, 8 mg",7920 ng·h/mL
same,Cmax Observed,"[1]; NDA Study2, PO, 8 mg",79.20 ng/mL
same,Tmax Observed,"[1]; NDA Study2, PO, 8 mg",6 h
same,Days Reduced to Reach Pharmacokinetic Endpoints: EC50,[2]; EM,3 days
same,Days Reduced to Reach Pharmacokinetic Endpoints: EC80,[2]; EM,3 days
same,Days Reduced to Reach Pharmacokinetic Endpoints: Steady State,[2]; EM,-4 days
same,Days Reduced to Reach Pharmacokinetic Endpoints: EC50,[2]; PM,2 days
same,Days Reduced to Reach Pharmacokinetic Endpoints: EC80,[2]; PM,5 days
same,Days Reduced to Reach Pharmacokinetic Endpoints: Steady State,[2]; PM,-29 days
same,time to reach therapeutic concentrations vs once daily dosing,"[2]; schizophrenia, normal-weight CYP2D6 PM, Modified Dosing Regimen 3",three days faster
same,time to reach therapeutic concentrations vs FDA label dosing,"[2]; schizophrenia, obese CYP2D6 EM, twice the starting and recommended daily doses for the first 7 days",three days faster
same,time to reach therapeutic concentrations vs once daily dosing,"[2]; schizophrenia, obese CYP2D6 PM, twice the starting and recommended daily doses for the first 14 days",five days faster
same,decrease of baseline clearance by CYP2D6 PM status,[3]; CYP2D6 PM,~30%
same,brexpiprazole clearance due to CYP3A4,[3]; based on the literature,46.7%
same,clearance due to other routes,[3]; based on the literature,10%
same,remaining clearance due to CYP2D6,[3]; based on the literature,43.3%
same,effect of weight on the pharmacokinetics of brexpiprazole,"[3]; previous studies, no patients with BMI>35 kg/m^2",less than 20%
same,renal clearance,[3]; share of brexpiprazole clearance,~1%
same,akathisia rates,[4],dose-dependent
